Laboratory results from PMC5406667, “Antiretroviral Activity Of a Novel Pyrimidyl-Di(Diazaspiroalkane) Derivative” (Acta Naturae, 2017).
“And” between values parts separate entries of the source, which are not always exact repeats. Equal values may be shown once. Read-outs that look alike come from different tables or passages of the source.

Columns and labels:
[1] = system: cellular HSPG; design: method as in earlier work; settings: prevents virus binding; cited from earlier work
[2] = system: herpes viruses; settings: cited from earlier work
[3] = design: method as in PMID 15341064; settings: degradation accompanied by the formation of nitric oxide; cited from earlier work
[4] = system: CEM-SS; settings: read-out: CC50 (cytotoxic concentration), CEM-SS cells
Protocol: (§1) Our studies were carried out at the National Cancer Institute (National Cancer Institute, Bethesda, Maryland, USA). Antiviral activity was assessed using the XTT test with various concentrations of the compound and incubation of cells (CEM-SS, MT-2, MT-4) in the presence of serial dilutions of dispiropiperazine 2 (dissolved in dimethyl sulphoxide, DMSO) for 6 days at a temperature of 37°C and humidified atmosphere with 5% CO2, followed by addition of XTT reagents. The method is based on a spectrometric measurement of the level of formazan transformed by living cells from a water-soluble tetrazolium salt, XTT.

[5] = system: MT-4; settings: read-out: CC50 (cytotoxic concentration), MT-4 cells
Protocol: as §1

[6] = system: MT-2; settings: read-out: CC50 (cytotoxic concentration), MT-2 cells
Protocol: as §1

[7] = system: HIV-2 ROD; settings: CEM-SS cells
Protocol: as §1
(§2) The following HIV strains were used: the reference HIV-1 IIIB strain; the AZT-sensitive HIV-1 6S, HIV- 1 RF strains; the drug-resistant HIV-1 N119 strains (resistant to nevirapine, Y181C mutation), HIV-1 DPS (resistant to diphenyl sulfone, Y181C mutation), and HIV-1 A-17 (resistant to nevirapine, K103N and Y181C mutations). We also used the HIV-2 ROD strain and simian immunodeficiency virus SIV MAC 251.

[8] = system: HIV-1 IIIB; settings: MT-4 cells
Protocol: as §1, §2

[9] = system: HIV-1 DPS; settings: MT-4 cells
Protocol: as §1, §2

[10] = system: HIV-1 N119
Protocol: as §1, §2

[11] = system: HIV-1 A-17; settings: for IC50: HIV-1 A-17 (resistant to nevirapine, K103N and Y181C), 6 days, XTT
Protocol: as §1, §2

[12] = system: SIV MAC 251; settings: SIV MAC 251, MT-4 cells
Protocol: as §1, §2

[13] = system: HIV-1 6S
Protocol: as §1, §2

[14] = system: HIV-1 RF; settings: CEM-SS cells
Protocol: as §1, §2

[O-][n+]1onc2ncnc(N3CC[N+]4(CC3)CC[N+]3(CCN(c5ncnc6no[n+]([O-])c56)CC3)CC4)c21 [Compound 1, N,N’-(bis-1-oxido[1,2,5]oxadiazolo [3,4d]-nitropyrimidine-7-il)-3,12-diaza-6,9-diazonia(5,2,5,2)dispirohexane dichloride]
Binding to cellular HSPG [1]: effective reversible binding to cellular HSPG | Inhibition of replication in herpes viruses [2]: inhibits replication in herpes viruses | Metabolic stability [3]: metabolic instability

3,3’-(5-nitropyrimidine-4,6-diyl)bis-3,12-diaza-6,9-diazoniadispiro[ 5.2.5.2]hexadecane tetrachloride dihydrochloride [Compound 2]
CC50 ([4]; HIV-1 RF experiment): 197 µM | CC50 ([4]; HIV-2 ROD experiment): 200 µM | CC50 ([5]; HIV-1 A-17 experiment): 200 µM | CC50 ([5]; HIV-1 DPS experiment): 200 µM | CC50 ([5]; HIV-1 IIIB experiment): 200 µM | CC50 ([5]; HIV-1 N119 experiment): 200 µM | CC50 ([5]; SIV MAC 251 experiment): 200 µM | CC50 ([6]; HIV-1 6S experiment): 98.2 µM | CC50 ([6]; HIV-1 A-17 experiment): 79.1 µM | TI (CC50/IC50), therapeutic index [7]: 15.0 | IC50 ([7]; 6 days, XTT): 13.3 µM | IC50 ([8]; HIV-1 IIIB (reference strain), 6 days, XTT): 5.7 µM | TI (CC50/IC50), therapeutic index ([8]; HIV-1 IIIB): 35.0 | IC50 ([9]; HIV-1 DPS (resistant to diphenyl sulfone, Y181C), 6 days, XTT): 1.17 µM and 1.2 µM | TI (CC50/IC50), therapeutic index ([9]; HIV-1 DPS): 170.0 | IC50 ([10]; HIV-1 N119 (resistant to nevirapine, Y181C), MT-4 cells, 6 days, XTT): 31.7 µM | TI (CC50/IC50), therapeutic index ([10]; HIV-1 N119, MT-4 cells): 6.3 | IC50 ([11]; MT-2 cells): 4.7 µM | IC50 ([11]; MT-4 cells): 33.7 µM | TI (CC50/IC50), therapeutic index ([11]; HIV-1 A-17, MT-2 cells): 16.7 | TI (CC50/IC50), therapeutic index ([11]; HIV-1 A-17, MT-4 cells): 5.9 | TI (CC50/IC50), therapeutic index [12]: 31.5 | IC50 ([12]; 6 days, XTT): 6.3 µM | IC50 [13]: 1.37 µM and 1.4 µM | TI (CC50/IC50), therapeutic index ([13]; HIV-1 6S, MT-2 cells): 71.4 | IC50 ([14]; HIV-1 RF (AZT-sensitive), 6 days, XTT): 150 µM | TI (CC50/IC50), therapeutic index ([14]; HIV-1 RF): 1.3
